{"source": "patent US20080233080A1", "about": "“Inulins, Levans, Fructans And Other Smaller-Than-Cellulose Termite Feeding Attractants, And Termite” (priority 2004, published 2008)", "key": {"[1]": {"system": "Reticulitermes spp.", "assay": "Diet consumption by groups of termites in no-choice and choice bioassay arenas", "assay_type": "in vivo", "description": "Subterranean Termite Collection. Five wild populations of Reticulitermes spp. were collected from fallen wood in forested areas of Fairfax County (N38° 43.29′ and W77° 30.93′), Montgomery County (N37° 12.46′ and W80° 24.47′), Rockbridge County (N37° 48.00′ and W 79° 25.00′), and Roanoke County (N37° 19.53′ and W79° 58.53′), Virginia. Termites were harvested by placing the infested wood into large storage bins (70 L; Sterlite®; Sterlite Corporation, Townsend, Mass.) on top of damp, recycled paper towels (Acclaim®; Fort James Corporation, Deerfield, Ill.). As the wood dried out the termites moved into the moist paper towels. The infested paper towels were then transferred to plastic storage containers (11.3 L; Rubbermaid, Wooster, Ohio) containing vermiculite (500 g; moistened 150% by weight (Lenz M., T. L. Amburgey, D. Zi-Rong, H. Kuhne, J. K. Mauldin, A. F. Preston, and M. Westcott, 1987, Interlaboratory studies on termite-wood decay fungi associations: I. Determination of maintenance conditions for several species of termites (Isoptera: Mastotermitidae, Termopsidae, Rhinotermitidae), Sociobiology, 13:1-56; Cherokee Vermiculite Horticultural Fine Cherokee Products, Jefferson City, Tenn.). Subterannean termite containers were stored in complete darkness (˜21° C. and 97% RH) until needed for testing. Subterranean termites were tested within one month after being collected from the field.\nTermite Diet Preparation. Recycled brown paper toweling (Acclaim®) was cut into squares (35×35 mm) and used as a diet substrate. The diet substrates were placed into glass Pyrex Petri dishes (100×20 mm; Corning Glass Works, Corning, N.Y.) and dried overnight in a single wall, gravity convection, laboratory oven (60° C.; Blue M SW-17TA; Blue M Electric Company; Blue Island, Ill.). After 24 hours, each diet substrate was taken out of the oven, numbered in the corner with a pencil and weighed on a balance (Mettler AE163; Lab Tech, Inc.) to the nearest 0.1 mg. After weighing, certain diets were treated with radiochemicals. Because hexaflumuron cannot be stored at temperatures greater than 50° C., radioisotopes were only applied after the diets were oven dried. The weight of the isotopes on the diet after air drying was determined to be negligible.\nControl Diets. Control diets were treated with the visual marker only. The visual marker was formulated by dissolving Nile Blue-A in acetone and applying a 150 μl aliquot of dye solution to each diet substrate. The final Nile Blue-A concentration on the diet was 0.1%.\n^14C-hexaflumuron Diets. A stock solution of technical grade hexaflumuron, ^14C-hexaflumuron (0.5% total hexaflumuron concentration) and 0.1% Nile Blue-A was formulated in acetone. An aliquot (150 μl) of the solution was applied to each diet substrate so that each diet contained 0.27 μCi of the ^14C-hexaflumuron.\n^3H-inulin Diets. A stock solution of the ^3H-inulin and 0.1% Nile Blue-A (1.95 mg) was formulated in acetone. An aliquot (150 μl) of the solution was applied to each diet substrate so that each diet contained […] of the ^3H-inulin. ^3H has a lower energy spectrum than ^14C, so ˜8× more ^3H-inulin was added to the diets than ^14C-hexaflumuron to facilitate radioisotope quantification process after termite consumption.\nBioassay Arenas: Consumption bioassays were performed in choice and non-choice bioassay arenas. Arena tests were used to evaluate termite consumption of hexaflumuron treated bait alone and in the presence of a competing food source.\nNo-Choice Bioassay. No-choice bioassay arenas were assembled by connecting two Petri dishes with Tygon tubing (inner diameter 3.2 mm, outer diameter 6.4 mm). Petri dishes were washed 4 times in tap water to eliminate static electricity. Tygon tubing was soaked in tap water for 3 hours and allowed to air dry prior to use. One Petri dish (95 mm×15 mm; Fisher Scientific) served as a termite housing chamber and was filled with moist sand (˜45 g). […]"}, "[2]": {"system": "Reticulitermes spp.", "assay": "Diet consumption by individual termites, radioisotope quantification by scintillation counting", "assay_type": "in vivo", "settings": "for feeding preference of individual termites: choice test 14C-hexaflumuron and 3H-inulin", "description": "Diet Consumption by Individual Termites. After mortality was recorded for a particular treatment/day, 20 surviving termites were randomly selected from each radioactive treatment arena for isotope analysis. Random selection was not limited to dyed termites. Non-dyed termites were also selected. The termites were thoroughly rinsed with distilled water three times to remove any radioactivity from the outside of the body. They were next placed on paper towels to remove excess water. Each rinsed, dried termite was placed into a separate microcentrifuge tube (1.5 ml; Fisher Brand), and the body was homogenized in 200 μl of distilled water. The homogenate was transferred into a glass scintillation vial (20 ml; Kimble Glass, Vineland, N.J.). Microcentrifuge tubes were rinsed three times with 200 μl of distilled water per rinse. Each rinse was added to the homogenate in the scintillation vial. An aliquot of scintillation cocktail (8 ml; Scintiverse® BD; Fisher Scientific, Fair Lawn, N.J.) was then added to each vial.\nThe amount of radioactivity contained within each sample was quantified by using a scintillation counter (Beckman Coulter, Inc.™ LS 6500, Fullerton, Calif.). The individual termite samples contained very low dpm counts. Therefore, sample vials containing only a single isotope (from no-choice tests) were counted for 10 minutes. However, sample vials that potentially could contain dual isotopes (from choice-tests) were counted for 20 minutes to improve the accuracy of the counts.\nBackground Radioactivity Measurements. After termite mortality had been recorded, 2 termites were selected at random from each no-choice, control arena. These termites were rinsed, homogenized, and prepared for scintillation counting as previously described. Control termites were counted in the scintillation counter for 10 minutes to record background radioactivity. Background radioactivity was measured for each treatment group (choice and no-choice) at both 2 d and 5 d. Background measurements also accounted for any quenching that occurred due to the termite body fragments occluding light transmission in the scintillation counter. Before the test data was analyzed, background radioactivity counts for a particular sample was subtracted from the sample's spectral peak (Traniello, J. F. A., R. B. Rosengaus and C. K. Levy, 1985, Single and double isotope labeling of social insect colonies, Entomol. Exp. Appl., 38:87-92; Suarez, M. E. and B. L. Thorne, 2000, Effects of food type and foraging distance on trophallaxis in the subterranean termite Reticulitermes virginicus (Isoptera: Rhinotermitidae), Sociobiology, 35: 487-498).\nRadiolabel Counting using Dual Label Technique. Specialized procedures were required for analysis of radiolabeled samples containing both ^14C and ^3H. Due to the potential low/high counts and spillover of ^14C and ^3H in the counting window, a series of dilutions was made from extracted diets (with known amounts of activity) to correct for spillover. The range of activity values for ^14C and ^3H and a combination of the two isotopes within the samples was determined. Spillover correction curves were generated for the range of sample data and used to correct those samples where high levels of both ^14C and ^3H occurred and spillover was evident.\nQuantification of radioactive isotopes from individual termite cadavers was used to determine how much a single termite consumed of ^14C-hexaflumuron diet in the presence of a competing food source. Mean consumption of ^14C-hexaflumuron diet in the no-choice test was compare with ^14C-hexaflumuron consumption in the choice test using GLM ANOVA with Least Squares adjustment for multiple comparisons of mean values. For all tests data was analyzed separately for 2 d and 5 d.\nFinally, mean consumption of the two radioisotopes, ^14C-hexaflumuron and ^3H-inulin, in the choice tests were compared to determine whether termites preferred one diet over another. […]"}, "[3]": {"system": "eastern subterranean termites", "settings": "in vivo; cited from earlier work"}, "[4]": {"system": "subterranean termites", "settings": "subterranean termites fed hexaflumuron bait; cited from earlier work"}, "[5]": {"system": "Reticulitermes sp.", "assay": "Inulin treated vs untreated paper towel diets placed on yellow pine termite harborages", "assay_type": "in vivo", "settings": "average of 7 d", "description": "Subterranean termites, Reticulitermes sp. were reared in the laboratory in Nunc dishes containing strips of yellow pine wood as a food resource and termite harborage. Inulin treated and untreated paper towel diets were weighed and then placed side by side on the top of the termite harborages (strips of yellow pine). Termites were allowed to forage for an average of 7 d. After the test period, the diets were removed, weighed and consumption of each towel diet was recorded as a percentage of total consumption of both paper towel diets."}, "[6]": {"settings": "choice test hexaflumuron and inulin diets, 2 d"}, "[7]": {"settings": "choice test hexaflumuron and inulin diets, 5 d"}, "[8]": {"settings": "choice test 14C-hexaflumuron and 3H-inulin diets, 5 d"}, "[9]": {"settings": "choice test hexaflumuron and inulin diets, 5 d, listed as inulin"}}, "note": "Where “and” joins values, the source holds several entries; their conditions need not be identical. Equal entries are not always repeated. Entries after “also recorded” stand apart in the source; their conditions may differ.", "data": [{"molecule": "O=C(NC(=O)c1c(F)cccc1F)Nc1cc(Cl)c(OC(F)(F)C(F)F)c(Cl)c1", "note": "[Hexaflumuron, N-(((3,5-dichloro-4-(1,1,2,2-tetrafluoroethoxy)phenyl)-amino)carbonyl)-2,6-difluorobenzamide]", "values": [{"measurement": "Hexaflumuron Consumption (mg) (Mean ± SEM)", "setting": "[1]; choice test hexaflumuron and control diet, 2 d", "value": "1.6 ± 0.9", "unit": "a mg"}, {"measurement": "Hexaflumuron Consumption (mg) (Mean ± SEM)", "setting": "[1]; choice test hexaflumuron and control diet, 2 d, listed as hexaflumuron", "value": 1.6, "unit": "mg"}, {"measurement": "Hexaflumuron Consumption (mg) (Mean ± SEM)", "setting": "[1]; choice test hexaflumuron and control diet, 5 d", "value": "3.2 ± 1.4", "unit": "a mg"}, {"measurement": "Hexaflumuron Consumption (mg) (Mean ± SEM)", "setting": "[1]; choice test hexaflumuron and control diet, 5 d, listed as hexaflumuron", "value": 3.2, "unit": "mg"}, {"measurement": "Consumption (mg) (Mean ± SEM)", "setting": "[1]; [6]", "value": "1.0 ± 0.8", "unit": "a mg"}, {"measurement": "Consumption (mg) (Mean ± SEM)", "setting": "[1]; choice test hexaflumuron and inulin diets, 2 d, listed as hexaflumuron", "value": 1.0, "unit": "mg"}, {"measurement": "Consumption (mg) (Mean ± SEM)", "setting": "[1]; [7]", "value": "0.2 ± 0.1b mg and 0.2 ± 0.1 a mg"}, {"measurement": "Consumption (mg) (Mean ± SEM)", "setting": "[1]; choice test hexaflumuron and inulin diets, 5 d, listed as 14C-hexaflumuron", "value": 0.2, "unit": "mg"}, {"measurement": "Consumption (mg) (Mean ± SEM)", "setting": "[1]; choice test hexaflumuron and inulin diets, 5 d, listed as hexaflumuron", "value": 0.2, "unit": "mg"}, {"measurement": "Hexaflumuron Consumption (mg) (Mean ± SEM)", "setting": "[1]; no-choice test, 2 d, groups of 100 termite workers, 0.5% hexaflumuron diet", "value": "3.0 ± 0.7", "unit": "a mg"}, {"measurement": "Hexaflumuron Consumption (mg) (Mean ± SEM)", "setting": "[1]; no-choice test, 2 d, groups of 100 termite workers, 0.5% hexaflumuron diet, listed as 14C-hexaflumuron", "value": 3, "unit": "mg"}, {"measurement": "Hexaflumuron Consumption (mg) (Mean ± SEM)", "setting": "[1]; no-choice test, 2 d, groups of 100 termite workers, 0.5% hexaflumuron diet, listed as hexaflumuron", "value": 3.0, "unit": "mg"}, {"measurement": "Hexaflumuron Consumption (mg) (Mean ± SEM)", "setting": "[1]; no-choice test, 5 d, groups of 100 termite workers, 0.5% hexaflumuron diet", "value": "11.4 ± 3.9", "unit": "a mg"}, {"measurement": "Hexaflumuron Consumption (mg) (Mean ± SEM)", "setting": "[1]; no-choice test, 5 d, groups of 100 termite workers, 0.5% hexaflumuron diet, listed as 14C-hexaflumuron", "value": 11.4, "unit": "mg"}, {"measurement": "Hexaflumuron Consumption (mg) (Mean ± SEM)", "setting": "[1]; no-choice test, 5 d, groups of 100 termite workers, 0.5% hexaflumuron diet, listed as hexaflumuron", "value": 11.4, "unit": "mg"}, {"measurement": "consumption by an individual termite", "setting": "[2]; choice test 14C-hexaflumuron and 3H-inulin diets, 2 d", "value": 7.3, "unit": "µg"}, {"measurement": "consumption by an individual termite", "setting": "[2]; [8]", "value": 2.3, "unit": "µg"}, {"measurement": "feeding preference of individual termites", "setting": "[2]; 2 d", "value": "did not prefer either diet"}, {"measurement": "consumption by an individual termite", "setting": "[2]; choice test competing with control diet, 2 d", "value": 14.5, "unit": "µg"}, {"measurement": "consumption by an individual termite", "setting": "[2]; choice test in presence of control diet, 5 d", "value": 19.3, "unit": "µg"}, {"measurement": "consumption by an individual termite", "setting": "[2]; no-choice test, 2 d", "value": 38.9, "unit": "µg"}, {"measurement": "consumption by an individual termite", "setting": "[2]; no-choice test, 5 d", "value": 56.9, "unit": "µg"}, {"measurement": "mean half life within the body of a termite", "setting": "[3]", "value": "~9", "unit": "days"}, {"measurement": "LT50", "setting": "[4]", "value": "~26.6", "unit": "days"}, {"measurement": "onset of toxicity", "setting": "[4]", "value": "approximately 15 d"}]}, {"molecule": "inulin", "values": [{"measurement": "Consumption (mg) (Mean ± SEM)", "setting": "[1]; [6]", "value": "2.0 ± 0.6", "unit": "mg"}, {"measurement": "Consumption (mg) (Mean ± SEM)", "setting": "[1]; [7]", "value": "6.0 ± 1.3 mg and 6.0 ± 1.3 b mg"}, {"measurement": "Consumption (mg) (Mean ± SEM)", "setting": "[1]; [9]", "value": 6.0, "unit": "mg"}, {"measurement": "feeding preference of termite populations (consumption significantly greater than 50% of total)", "setting": "[1]; [9]", "value": "preference for the inulin diet was indicated; also recorded: preference for the inulin treated bait"}, {"measurement": "consumption of inulin treated bait relative to Hexaflumuron treated bait", "setting": "[1]; choice test, 5 d, Table B", "value": 30, "unit": "times"}, {"measurement": "consumption by an individual termite", "setting": "[2]; [8]", "value": 19.4, "unit": "µg"}, {"measurement": "feeding preference of individual termites", "setting": "[2]; 2 d", "value": "did not prefer either diet"}, {"measurement": "feeding preference of individual termites", "setting": "[2]; 5 d, listed as 3H-inulin", "value": "significant preference"}, {"measurement": "feeding preference of individual termites", "setting": "[2]; 5 d, listed as inulin", "value": "significant preference for the inulin treated bait"}, {"measurement": "preferential consumption versus untreated towels and yellow pine wood", "setting": "[5]", "value": "preferentially consumed inulin treated paper towels over untreated towels and yellow pine wood"}, {"measurement": "Termite Consumption Mean % ± SEM (percentage of total consumption of both paper towel diets)", "setting": "[5]; choice, in presence of yellow pine", "value": "64.7 ± 4.5", "unit": "%"}]}]}
